Measured values reported in patent US9403830B2, “Inhibitors of leukotriene production” (Boehringer Ingelheim International GmbH, priority 2012, dated 2016).

Tests used:
human LTA4 hydrolase = target: T1, human LTA4 hydrolase (Homo sapiens, UniProt P09960); test: LTA4H Enzyme assay (peptidase, Arg-AMC cleavage); assay type: biochemical; details: LTA4H enzyme 1 nM, Arg-AMC substrate 50 μM, room temperature 1 h, fluorescence 380/460 nm
T1 sequence (P09960 1-611): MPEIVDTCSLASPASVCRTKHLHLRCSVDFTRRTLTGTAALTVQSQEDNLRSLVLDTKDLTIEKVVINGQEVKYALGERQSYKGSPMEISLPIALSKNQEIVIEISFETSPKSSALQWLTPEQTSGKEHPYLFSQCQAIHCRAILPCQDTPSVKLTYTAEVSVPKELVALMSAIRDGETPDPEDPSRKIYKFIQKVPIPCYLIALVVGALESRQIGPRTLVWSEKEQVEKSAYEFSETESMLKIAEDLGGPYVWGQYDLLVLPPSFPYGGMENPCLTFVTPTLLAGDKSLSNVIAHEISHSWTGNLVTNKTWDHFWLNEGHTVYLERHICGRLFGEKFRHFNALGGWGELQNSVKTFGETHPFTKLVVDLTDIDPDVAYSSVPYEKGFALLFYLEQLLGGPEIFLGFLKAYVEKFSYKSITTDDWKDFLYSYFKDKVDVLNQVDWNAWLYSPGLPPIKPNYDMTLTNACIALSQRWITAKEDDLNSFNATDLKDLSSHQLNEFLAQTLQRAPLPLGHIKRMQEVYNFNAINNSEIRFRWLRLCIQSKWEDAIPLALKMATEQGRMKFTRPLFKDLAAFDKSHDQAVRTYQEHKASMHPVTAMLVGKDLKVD
In short: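 Human LTA4H (1 nM final) incubated with compound and Arg-AMC (50 μM final) in 50 mM Tris-HCl pH 7.5, 100 mM KCl, 0.5% BSA, 1 h at room temperature. Product read as AMC fluorescence (ex 380/em 460 nm); IC50 reported.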

[1] = tested on: LTB4 synthesis in human whole blood; test: human whole blood (HWB) assay, inhibition of LTB4 production; assay type: cell-based; details: heparinized human whole blood, calcimycin 20 μM stimulation, plasma LTB4
In short: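 Heparinized human whole blood preincubated with compound 15 min at 37 °C, then stimulated with 20 μM (final) calcimycin for 30 min at 37 °C. Plasma LTB4 measured by antibody-based HTRF; IC50 reported.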

An IC50 (human LTA4 hydrolase) of 0.089 nM and an IC50 [1] of 95 nM were found for `CN(Cc1nc2cc(Oc3ccc(-c4ccn[nH]4)cc3)ccc2[nH]1)[C@@H]1CCOC1` [Example 78, Methyl-{5-[4-(2H-pyrazol-3-yl)-phenoxy]-1H-benzoimidazol-2-ylmethyl}-(R)-tetrahydro-furan-3-yl-amine] in this work.

An IC50 (human LTA4 hydrolase) of 0.3 nM and an IC50 [1] of 98 nM were found for `c1cc(-c2ccc(Oc3ccc4c(cnn4CCCN4CCCC4)c3)cc2)[nH]n1` [Example 79, 5-[4-(2H-Pyrazol-3-yl)-phenoxy]-1-(3-pyrrolidin-1-yl-propyl)-1H-indazole] in this work.

An IC50 (human LTA4 hydrolase) of 0.09 nM and an IC50 [1] of 98 nM were found for `CC[C@@H](C)N(C)Cc1nc2cc(Oc3ccc(-c4ccn[nH]4)cc3)ccc2[nH]1` [Example 80, ((R)-sec-Butyl)-methyl-{5-[4-(2H-pyrazol-3-yl)-phenoxy]-1H-benzoimidazol-2-ylmethyl}-amine] in this work.

An IC50 (human LTA4 hydrolase) of 0.27 nM and an IC50 [1] of 100 nM were found for `CN(Cc1nc2cc(Oc3ccc(-c4ccn[nH]4)cc3)ccc2[nH]1)C[C@H]1CCCO1` [Example 81] in this work.

An IC50 (human LTA4 hydrolase) of 0.077 nM and an IC50 [1] of 110 nM were found for `COC[C@H](C)N(C)Cc1nc2cc(Oc3ccc(-c4ccn[nH]4)cc3)ccc2[nH]1` [Example 82, ((S)-2-Methoxy-1-methyl-ethyl)-methyl-{5-[4-(2H-pyrazol-3-yl)-phenoxy]-1H-benzoimidazol-2-ylmethyl}-amine] in this work.

An IC50 (human LTA4 hydrolase) of 0.88 nM and an IC50 [1] of 120 nM were found for `c1cc(-c2ccc(Oc3ccc4c(cnn4CCN4CCCC4)c3)nc2)[nH]n1` [Example 83, 5-[5-(2H-Pyrazol-3-yl)-pyridin-2-yloxy]-1-(2-pyrrolidin-1-yl-ethyl)-1H-indazole] in this work.

An IC50 (human LTA4 hydrolase) of 0.36 nM and an IC50 [1] of 120 nM were found for `c1cc(-c2ccc(Oc3ccc4nn(CCCN5CCOCC5)cc4c3)cc2)[nH]n1` [Example 84, 2-(3-Morpholin-4-yl-propyl)-5-[4-(2H-pyrazol-3-yl)-phenoxy]-2H-indazole] in this work.

An IC50 (human LTA4 hydrolase) of 0.24 nM and an IC50 [1] of 120 nM were found for `CN(Cc1nc2cc(Oc3ccc(-c4ccn[nH]4)cc3)ccc2[nH]1)CC1CCCO1` (stereo not shown) [Example 85, Methyl-{5-[4-(2H-pyrazol-3-yl)-phenoxy]-1H-benzoimidazol-2-ylmethyl}-(tetrahydro-furan-2-ylmethyl)-amine] in this work.

An IC50 (human LTA4 hydrolase) of 0.056 nM and an IC50 [1] of 120 nM were found for `CCN(Cc1nc2cc(Oc3ccc(-c4ccn[nH]4)cc3)ccc2[nH]1)[C@@H](C)COC` [Example 86, Ethyl-((S)-2-methoxy-1-methyl-ethyl)-{5-[4-(2H-pyrazol-3-yl)-phenoxy]-1H-benzoimidazol-2-ylmethyl}-amine] in this work.

An IC50 (human LTA4 hydrolase) of 0.36 nM and an IC50 [1] of 120 nM were found for `CN(Cc1nc2cc(Oc3ccc(-c4ccn[nH]4)cc3)ccc2[nH]1)CC1COCCO1` (stereo not shown) [Example 87, [1,4]Dioxan-2-ylmethyl-methyl-{5-[4-(2H-pyrazol-3-yl)-phenoxy]-1H-benzoimidazol-2-ylmethyl}-amine] in this work.

An IC50 (human LTA4 hydrolase) of 0.086 nM and an IC50 [1] of 130 nM were found for `CN1CCC[C@H]1Cc1nc2cc(Oc3ccc(-c4ccn[nH]4)cc3)ccc2[nH]1` [Example 89, 2-((S)-1-Methyl-pyrrolidin-2-ylmethyl)-5-[4-(2H-pyrazol-3-yl)-phenoxy]-1H-benzoimidazole] in this work.

An IC50 (human LTA4 hydrolase) of 0.45 nM and an IC50 [1] of 130 nM were found for `CC(=O)N1CCN(CCn2ncc3cc(Oc4ccc(-c5ccn[nH]5)cc4)ccc32)CC1` [Example 90, 1-[4-(2-{5-[4-(2H-Pyrazol-3-yl)-phenoxy]-indazol-1-yl}-ethyl)-piperazin-1-yl]-ethanone] in this work.

An IC50 (human LTA4 hydrolase) of 0.21 nM and an IC50 [1] of 140 nM were found for `COCCNCc1nc2cc(Oc3ccc(-c4ccn[nH]4)cc3)ccc2[nH]1` [Example 91, (2-Methoxy-ethyl)-{5-[4-(2H-pyrazol-3-yl)-phenoxy]-1H-benzoimidazol-2-ylmethyl}-amine] in this work.

An IC50 (human LTA4 hydrolase) of 0.11 nM and an IC50 [1] of 140 nM were found for `CN(Cc1nc2cc(Oc3ccc(-c4ccn[nH]4)cc3)ccc2[nH]1)CC1CCCOC1` (stereo not shown) [Example 92, Methyl-{5-[4-(2H-pyrazol-3-yl)-phenoxy]-1H-benzoimidazol-2-ylmethyl}-(tetrahydro-pyran-3-ylmethyl)-amine] in this work.

An IC50 (human LTA4 hydrolase) of 0.58 nM and an IC50 [1] of 150 nM were found for `CC(=O)N1CCN(CCn2cc3cc(Oc4ccc(-c5ccn[nH]5)cc4)ccc3n2)CC1` [Example 93, 1-[4-(2-{5-[4-(2H-Pyrazol-3-yl)-phenoxy]-indazol-2-yl}-ethyl)-piperazin-1-yl]-ethanone] in this work.

An IC50 (human LTA4 hydrolase) of 1.3 nM and an IC50 [1] of 150 nM were found for `CC(=O)N1CCN(CCn2ncc3cc(Oc4ccc(-c5ccn[nH]5)cn4)ccc32)CC1` [Example 94, 1-[4-(2-{5-[5-(2H-Pyrazol-3-yl)-pyridin-2-yloxy]-indazol-1-yl}-ethyl)-piperazin-1-yl]-ethanone] in this work.

An IC50 (human LTA4 hydrolase) of 0.83 nM and an IC50 [1] of 150 nM were found for `CC(=O)N1CCN(CCCn2cc3cc(Oc4ccc(-c5ccn[nH]5)cc4)ccc3n2)CC1` [Example 95, 1-[4-(3-{5-[4-(2H-Pyrazol-3-yl)-phenoxy]-indazol-2-yl}-propyl)-piperazin-1-yl]-ethanone] in this work.

An IC50 (human LTA4 hydrolase) of 0.79 nM and an IC50 [1] of 160 nM were found for `N#CCC1CCN(Cc2ccc3cc(Oc4ccc(-c5ccn[nH]5)cn4)ccc3n2)CC1` [Example 96, (1-{6-[5-(2H-Pyrazol-3-yl)-pyridin-2-yloxy]-quinolin-2-ylmethyl}-piperidin-4-yl)-acetonitrile] in this work.

An IC50 (human LTA4 hydrolase) of 0.54 nM and an IC50 [1] of 160 nM were found for `c1cc(-c2ccc(Oc3ccc4[nH]c(CNCC5CCCO5)nc4c3)cc2)[nH]n1` (stereo not shown) [Example 97, {5-[4-(2H-Pyrazol-3-yl)-phenoxy]-1H-benzoimidazol-2-ylmethyl}-(tetrahydro-furan-2-ylmethyl)-amine] in this work.

An IC50 (human LTA4 hydrolase) of 0.18 nM and an IC50 [1] of 160 nM were found for `c1cc(-c2ccc(Oc3ccc4[nH]c(CN5CCSCC5)nc4c3)cc2)[nH]n1` [Example 98, 5-[4-(2H-Pyrazol-3-yl)-phenoxy]-2-thiomorpholin-4-ylmethyl-1H-benzoimidazole] in this work.

An IC50 (human LTA4 hydrolase) of 0.93 nM and an IC50 [1] of 170 nM were found for `N#CC1CCN(Cc2ccc3cc(Oc4ccc(-c5ccn[nH]5)cn4)ccc3n2)CC1` [Example 99, 1-{6-[5-(2H-pyrazol-3-yl)-pyridin-2-yloxy]-quinolin-2-ylmethyl}-piperidine-4-carbonitrile] in this work.

An IC50 (human LTA4 hydrolase) of 0.42 nM and an IC50 [1] of 170 nM were found for `c1cc(-c2ccc(Oc3ccc4[nH]c(CNC[C@@H]5CCCO5)nc4c3)cc2)[nH]n1` [Example 100, {5-[4-(2H-Pyrazol-3-yl)-phenoxy]-1H-benzoimidazol-2-ylmethyl}-[(S)-1-(tetrahydro-furan-2-yl)methyl]-amine] in this work.

An IC50 (human LTA4 hydrolase) of 0.55 nM and an IC50 [1] of 190 nM were found for `c1cc(-c2ccc(Oc3ccc4[nH]c(CNC[C@H]5CCCO5)nc4c3)cc2)[nH]n1` [Example 101, {5-[4-(2H-Pyrazol-3-yl)-phenoxy]-1H-benzoimidazol-2-ylmethyl}-[(R)-1-(tetrahydro-furan-2-yl)methyl]-amine] in this work.

An IC50 (human LTA4 hydrolase) of 0.91 nM and an IC50 [1] of 190 nM were found for `c1cc(-c2ccc(Oc3ccc4c(cnn4CCN4CCOCC4)c3)cc2)[nH]n1` [Example 102, 1-(2-Morpholin-4-yl-ethyl)-5-[4-(2H-pyrazol-3-yl)-phenoxy]-1H-indazole] in this work.

An IC50 (human LTA4 hydrolase) of 0.27 nM and an IC50 [1] of 190 nM were found for `CC[C@H](C)N(Cc1nc2cc(Oc3ccc(-c4ccn[nH]4)cc3)ccc2[nH]1)C(C)=O` [Example 103, N—((S)-sec-butyl)-N-{5-[4-(2H-pyrazol-3-yl)-phenoxy]-1H-benzoimidazol-2-ylmethyl}-acetamide] in this work.

An IC50 (human LTA4 hydrolase) of 0.27 nM and an IC50 [1] of 190 nM were found for `CN(Cc1nc2cc(Oc3ccc(-c4ccn[nH]4)cc3)ccc2[nH]1)CC1CCOC1` (stereo not shown) [Example 104, Methyl-{5-[4-(2H-pyrazol-3-yl)-phenoxy]-1H-benzoimidazol-2-ylmethyl}-(tetrahydro-furan-3-ylmethyl)-amine] in this work.
